Source: PubChem BioAssay AID588647 (Sanford-Burnham Center for Chemical Genomics, 2011)
Values joined by “and” are separate entries in the source; they are usually repeats but may differ in a detail not shown here. Equal values may be shown once. Active and inactive are the calls of the source. The rule behind the calls is not given here.

Target: intestinal alkaline phosphatase (Mus musculus)
Assay: mouse IAP inhibition by analogs – biochemical, luminescence, set 2, SAR follow-up (AID 588647)
Settings: purified mouse IAP, luminescent substrate read-out

Row | SMILES | IC50
1 | O=C(CCNS(=O)(=O)c1ccc2[nH]c(=O)oc2c1)NCc1ccc(O)c(O)c1 | 7.7 µM
2 | O=C(CCS(=O)(=O)Nc1ccc2[nH]c(=O)oc2c1)NCc1cccc(Cl)c1 | 67 µM
3 | COc1ccc(CNC(=O)CCNS(=O)(=O)c2ccc3c(c2)CCC3)c(OC)c1 | > 100 µM (inactive)
4 | COc1cc(C(=O)N/N=C/c2c(F)cccc2Cl)cc(OC)c1OC | > 100 µM (inactive)
5 | C/C(=N\NC(=O)c1cc(O)c(O)c(O)c1)c1ccc(O)cc1O | 0.777 µM
6 | O=C(CCNS(=O)(=O)c1ccc2[nH]c(=O)oc2c1)NCc1ccccc1F | > 100 µM (inactive)
7 | O=C(CCCNS(=O)(=O)c1ccc2[nH]c(=O)oc2c1)NCc1cccc(F)c1 | 2.8 µM and 13 µM
8 | CSc1cccc(NC(=O)CCNS(=O)(=O)c2ccc3c(c2)oc(=O)n3C)c1 | > 100 µM (inactive)
9 | O=C(CCNS(=O)(=O)c1ccc2[nH]c(=O)oc2c1)Nc1ccc2c(c1)OCO2 | 12 µM
10 | COc1ccc(CCNC(=O)CCCNS(=O)(=O)c2ccc3[nH]c(=O)oc3c2)cc1OC | 1.5 µM
11 | O=C(N/N=C/c1ccccc1Cl)c1cc(O)c(O)c(O)c1 | 7.49 µM
12 | O=C(CCNS(=O)(=O)c1ccc2[nH]c(=O)oc2c1)NCc1cccc(C(F)(F)F)c1 | 70 µM
13 | Cc1ccc(NC(=O)CCNS(=O)(=O)c2ccc3c(c2)oc(=O)n3C)cc1 | 99 µM
14 | O=C(NCc1ccc(F)cc1)C1CCCN(S(=O)(=O)c2ccc3[nH]c(=O)oc3c2)C1 (stereo unspecified) | > 100 µM (inactive)
15 | COc1ccc(CNC(=O)CCNS(=O)(=O)c2ccc3[nH]c(=O)oc3c2)cc1 | 3 µM and 2.3 µM
16 | O=C(N/N=C/c1cc(Br)ccc1F)c1ccc(O)cc1 | > 100 µM (inactive)
17 | O=C(CCNS(=O)(=O)c1ccc2[nH]c(=O)oc2c1)NCc1ccccc1Cl | > 100 µM (inactive)
18 | O=C(NCc1ccccc1)C1CCCN(S(=O)(=O)c2ccc3[nH]c(=O)oc3c2)C1 (stereo unspecified) | > 100 µM (inactive)
19 | Cc1ccc(C)c(NS(=O)(=O)c2ccc3[nH]c(=O)oc3c2)c1 | > 100 µM (inactive)
20 | COc1ccc(NS(=O)(=O)c2ccc3[nH]c(=O)oc3c2)cc1OC | > 100 µM (inactive)
21 | O=C(N/N=C/c1ccc(Cl)c(Cl)c1)c1cc(O)c(O)c(O)c1 | 9.66 µM
22 | Cc1ccc(CNC(=O)C2CCCN(S(=O)(=O)c3ccc4[nH]c(=O)oc4c3)C2)cc1 (stereo unspecified) | > 100 µM (inactive)
23 | COc1ccc(OC)c(NC(=O)C2CCCN(S(=O)(=O)c3ccc4c(c3)oc(=O)n4C)C2)c1 (stereo unspecified) | > 100 µM (inactive)

Row | SMILES | IC50
24 | COc1ccc(NC(=O)CCCNS(=O)(=O)c2ccc3[nH]c(=O)oc3c2)c(OC)c1 | 6.3 µM
25 | N#Cc1ccc(NS(=O)(=O)c2ccc3[nH]c(=O)oc3c2)cc1 | > 100 µM (inactive)
26 | O=C(NCc1ccc2c(c1)OCO2)C1CCCN(S(=O)(=O)c2ccc3[nH]c(=O)oc3c2)C1 (stereo unspecified) | > 100 µM (inactive)
27 | Cc1ccc(CNC(=O)CCNS(=O)(=O)c2ccc3[nH]c(=O)oc3c2)cc1 | 89 µM
28 | O=C(CCNS(=O)(=O)c1ccc2[nH]c(=O)oc2c1)NCc1ccc(F)cc1 | > 100 µM (inactive)
29 | O=c1[nH]c2ccc(S(=O)(=O)Nc3ccc4c(c3)OCO4)cc2o1 | > 100 µM (inactive)
30 | Cc1ccccc1CNC(=O)CCCNS(=O)(=O)c1ccc2[nH]c(=O)oc2c1 | > 100 µM (inactive)
31 | O=C(CCNS(=O)(=O)c1ccc2[nH]c(=O)oc2c1)NCc1ccc(C(F)(F)F)cc1 | > 100 µM (inactive)
32 | O=C(CCNS(=O)(=O)c1ccc2[nH]c(=O)oc2c1)NCc1cccc(F)c1 | > 100 µM (inactive)
33 | COc1cccc(CNC(=O)CCNS(=O)(=O)c2ccc3[nH]c(=O)oc3c2)c1 | 0.82 µM and 34 µM and > 100 µM (inactive)
34 | CCc1ccc(NC(=O)C2CCCN(S(=O)(=O)c3ccc4c(c3)oc(=O)n4C)C2)cc1 (stereo unspecified) | > 100 µM (inactive)
35 | COc1ccccc1CNC(=O)CCCNS(=O)(=O)c1ccc2[nH]c(=O)oc2c1 | 2 µM and 5.4 µM
36 | COc1ccc(NC(=O)CCNS(=O)(=O)c2ccc3ccccc3c2)cc1OC | > 100 µM (inactive)
37 | O=C(CCNS(=O)(=O)c1ccc2[nH]c(=O)oc2c1)NCCc1ccc(O)cc1 | > 100 µM (inactive)
38 | COc1cccc(CNS(=O)(=O)c2ccc3[nH]c(=O)oc3c2)c1 | 40 µM
39 | Cc1ccc(C)c(NC(=O)CNS(=O)(=O)c2ccc3[nH]c(=O)oc3c2)c1 | 0.93 µM and 0.54 µM
40 | COc1cccc(NC(=O)CCNS(=O)(=O)c2ccc3c(c2)oc(=O)n3C)c1 | > 100 µM (inactive)
41 | Cc1cc(NC(=O)CCNS(=O)(=O)c2ccc3[nH]c(=O)oc3c2)ccc1Br | 94 µM
42 | O=C(CCNS(=O)(=O)c1ccc2ccccc2c1)NCCc1ccc2c(c1)OCO2 | > 100 µM (inactive)
43 | CC(C)Oc1ccc(CNC(=O)C2CCCN(S(=O)(=O)c3ccc4[nH]c(=O)oc4c3)C2)cc1 (stereo unspecified) | > 100 µM (inactive)
44 | O=c1[nH]c2ccc(S(=O)(=O)NCCc3ccc4c(c3)OCO4)cc2o1 | > 100 µM (inactive)
45 | O=C(CCCNS(=O)(=O)c1ccc2[nH]c(=O)oc2c1)NCCc1ccc(O)cc1 | 4.2 µM
46 | O=C(CCNS(=O)(=O)c1ccc2[nH]c(=O)oc2c1)NCc1ccccc1 | 81 µM

Further lines, results first:

Row | IC50 | SMILES
47 | 1.6 µM and 4.7 µM | N#Cc1ccc(NC(=O)CNS(=O)(=O)c2ccc3[nH]c(=O)oc3c2)cc1
48 | 98 µM | COc1ccc(CNS(=O)(=O)c2ccc3[nH]c(=O)oc3c2)cc1
49 | 1.4 µM and > 100 µM (inactive) | N#Cc1cccc(NC(=O)CNS(=O)(=O)c2ccc3[nH]c(=O)oc3c2)c1
50 | 8.37 µM | O=C(N/N=C/c1ccc(F)c(Br)c1)c1cc(O)c(O)c(O)c1
51 | > 100 µM (inactive) | COc1ccc(NC(=O)CCNS(=O)(=O)c2ccc3c(c2)CCC3)cc1OC
52 | 78 µM | Cc1ccc(C)c(NC(=O)CCNS(=O)(=O)c2ccc3ccccc3c2)c1
53 | > 100 µM (inactive) | O=C(N/N=C/c1ccccc1F)c1ccc(O)cc1
54 | > 100 µM (inactive) | CCOc1ccc(CNC(=O)C2CCCN(S(=O)(=O)c3ccc4[nH]c(=O)oc4c3)C2)cc1OC (stereo unspecified)
55 | 0.53 µM and 0.54 µM | COc1ccc(NC(=O)CCNS(=O)(=O)c2ccc3[nH]c(=O)oc3c2)cc1OC
56 | 8.41 µM | COc1ccc(/C=N/NC(=O)c2cc(O)c(O)c(O)c2)c(OC)c1
57 | > 100 µM (inactive) | O=C(N/N=C/c1ccccc1F)c1ccccc1OCc1ccccc1
58 | 27.9 µM | COc1ccc(/C=N\NC(=O)c2cc(O)c(O)c(O)c2)cc1CN1CCN(c2ccc(F)cc2)CC1
59 | > 100 µM (inactive) | O=C(N/N=C/c1ccc(Br)cc1F)c1cc(O)ccc1O
60 | 1.6 µM and > 100 µM (inactive) | O=C(CCCNS(=O)(=O)c1ccc2[nH]c(=O)oc2c1)NCc1ccccc1Cl
61 | > 100 µM (inactive) | N#Cc1cccc(NS(=O)(=O)c2ccc3[nH]c(=O)oc3c2)c1
62 | > 100 µM (inactive) | CN(C)c1ccc(CNC(=O)C2CCCN(S(=O)(=O)c3ccc4[nH]c(=O)oc4c3)C2)cc1 (stereo unspecified)
63 | > 100 µM (inactive) | CC(C)(C)c1ccc(/C=N/NC(=O)c2cc(O)c(O)c(O)c2)cc1
64 | 86 µM | O=C(CCS(=O)(=O)Nc1ccc2[nH]c(=O)oc2c1)NCc1ccccc1Cl
65 | > 100 µM (inactive) | Cc1ccc(C)c(CNC(=O)C2CCCN(S(=O)(=O)c3ccc4[nH]c(=O)oc4c3)C2)c1 (stereo unspecified)
66 | > 100 µM (inactive) | Cc1ccc(NC(=O)CCNS(=O)(=O)c2ccc3c(c2)oc(=O)n3C)c(C)c1
67 | > 100 µM (inactive) | CCOc1cc(C(=O)N/N=C/c2ccccc2F)cc(OCC)c1OCC
68 | 8.46 µM | O=C(N/N=C/c1ccccc1C(F)(F)F)c1cc(O)c(O)c(O)c1
69 | > 100 µM (inactive) | O=C(N/N=C/c1ccc(F)cc1F)c1ccc(O)cc1
70 | 57.5 µM | CC(C)c1ccc(/C=N/NC(=O)c2cc(O)c(O)c(O)c2)cc1
71 | > 100 µM (inactive) | CSc1cccc(NC(=O)C2CCCN(S(=O)(=O)c3ccc4c(c3)oc(=O)n4C)C2)c1 (stereo unspecified)

Row | IC50 | SMILES
72 | 45 µM | O=C(CCCNS(=O)(=O)c1ccc2[nH]c(=O)oc2c1)NCc1ccc2c(c1)OCO2
73 | 89 µM | COc1ccc(CNS(=O)(=O)c2ccc3[nH]c(=O)oc3c2)c(OC)c1
74 | 0.89 µM and 2.1 µM and 2.5 µM | COc1ccc(CNC(=O)CNS(=O)(=O)c2ccc3[nH]c(=O)oc3c2)cc1
75 | 8.02 µM | O=C(N/N=C/c1c(F)cccc1Cl)c1cc(O)c(O)c(O)c1
76 | > 100 µM (inactive) | O=C(NN=Cc1ccccc1F)c1ccc(O)cc1
77 | > 100 µM (inactive) | CC(C)c1ccc(NC(=O)CCNS(=O)(=O)c2ccc3c(c2)oc(=O)n3C)cc1
78 | 0.4 µM | Cc1ccc(C)c(NC(=O)CCNS(=O)(=O)c2ccc3[nH]c(=O)oc3c2)c1
79 | > 100 µM (inactive) | COc1ccccc1CNC(=O)CCNS(=O)(=O)c1ccc2[nH]c(=O)oc2c1
80 | 4.01 µM | COc1cccc(/C=N/NC(=O)c2cc(O)c(O)c(O)c2)c1O
81 | > 100 µM (inactive) | Cc1ccc(C)c(NC(=O)C2CCCN(S(=O)(=O)c3ccc4c(c3)oc(=O)n4C)C2)c1 (stereo unspecified)
82 | > 100 µM (inactive) | O=C(CCNS(=O)(=O)c1ccc2c(c1)CCC2)NCCc1ccc2c(c1)OCO2
83 | > 100 µM (inactive) | COc1ccc(C(=O)N/N=C/c2ccccc2F)cc1
84 | > 100 µM (inactive) | CC(C)c1ccc(NC(=O)C2CCCN(S(=O)(=O)c3ccc4c(c3)oc(=O)n4C)C2)cc1 (stereo unspecified)
85 | > 100 µM (inactive) | O=C(CNS(=O)(=O)c1ccc2[nH]c(=O)oc2c1)NCCc1ccc2c(c1)OCO2
86 | 11.1 µM | O=C(N/N=C/c1c(Cl)cccc1Cl)c1cc(O)c(O)c(O)c1
87 | 3.87 µM | COc1cc(/C=N/NC(=O)c2cc(O)c(O)c(O)c2)ccc1O
88 | 7.4 µM | COc1ccc(CCNC(=O)CCCNS(=O)(=O)c2ccc3[nH]c(=O)oc3c2)cc1
89 | 1.5 µM | COc1ccc(NC(=O)CCCNS(=O)(=O)c2ccc3[nH]c(=O)oc3c2)cc1OC
90 | > 100 µM (inactive) | Cc1ccccc1CNC(=O)C1CCCN(S(=O)(=O)c2ccc3[nH]c(=O)oc3c2)C1 (stereo unspecified)
91 | 78 µM | COc1ccc(CNC(=O)CCCNS(=O)(=O)c2ccc3[nH]c(=O)oc3c2)cc1OC
92 | 66 µM | O=C(CCS(=O)(=O)Nc1ccc2[nH]c(=O)oc2c1)NCc1cccc(F)c1
93 | 19.9 µM | O=C(N/N=C/c1cccc(Cl)c1Cl)c1cc(O)c(O)c(O)c1
94 | > 100 µM (inactive) | COc1ccc(C(=O)N/N=C/c2c(F)cccc2Cl)cc1OC
95 | > 100 µM (inactive) | COc1ccc(CNC(=O)C2CCCN(S(=O)(=O)c3ccc4[nH]c(=O)oc4c3)C2)cc1 (stereo unspecified)
96 | > 100 µM (inactive) | O=C(CCNS(=O)(=O)c1ccc2[nH]c(=O)oc2c1)NCc1cccc(Cl)c1
